Values after ≈ are worked out from the molar mass of the structure shown.
Assays:
Test in all cases: Antibacterial assay, MIC by continuous dilution method in 96-well plates
S. aureus (ATCC 25923) = type: cell-based, Staphylococcus aureus; details: for MIC: Staphylococcus aureus, ATCC25923, S. aureus ATCC 25923, read-out: MIC (μg/mL) S. aureus
Description: (§1) Two Gram-positive bacteria B. subtilis (ATCC 6633) and S. aureus (ATCC 25923), and two Gram-negative bacteria E. coli (ATCC 25922) and P. aeruginosa (ATCC 27853) were used. The antibacterial assay and the determination of the MIC were assessed according to continuous dilution method in 96-well plates which has been described in our published paper. The tested substances were dissolved in DMSO and ciprofloxacin was the positive control.

E. coli (ATCC 25922) = type: cell-based, Escherichia coli; details: for MIC: Escherichia coli, ATCC25922, E. coli ATCC 25922, read-out: MIC (μg/mL) E. coli
Description: as §1

B. subtilis (ATCC 6633) = type: cell-based, Bacillus subtilis; details: for MIC: Bacillus subtilis, ATCC6633, B. subtilis ATCC 6633, read-out: MIC (μg/mL) B. subtilis
Description: as §1

[1] = system: P. aeruginosa (ATCC 27853); type: cell-based; details: Pseudomonas aeruginosa, ATCC27853, read-out: MIC (μg/mL) P. aeruginosa
Description: as §1

SMILES | MIC (S. aureus (ATCC 25923)) [µg/mL] | MIC (E. coli (ATCC 25922)) [µg/mL] | MIC (B. subtilis (ATCC 6633)) [µg/mL] | MIC [1] [µg/mL] | MIC (μg/mL) S. aureus (S. aureus (ATCC 25923); S. aureus ATCC 25923) [µg/mL] | MIC (μg/mL) E. coli (E. coli (ATCC 25922); E. coli ATCC 25922) [µg/mL] | MIC (μg/mL) B. subtilis (B. subtilis (ATCC 6633); B. subtilis ATCC 6633) [µg/mL]
CCCc1ccc(O)c(O)c1CO [Compound 6, Asperpanoid A] | > 100 | > 100 | > 100 | > 100 |  |  | 
CCCc1cccc(O)c1CO [Compound 8, 2-(hydroxymethyl)-3-propylphenol] | 4.15 to 12.5 (≈ 25 to 75.2 µM) | 4.15 to 12.5 (≈ 25 to 75.2 µM) | 4.15 to 12.5 (≈ 25 to 75.2 µM) | > 100 | 4.15 ± 1.12 (≈ 25 µM) | 8.3 ± 1.0 (≈ 49.9 µM) | 8.3 ± 1.1 (≈ 49.9 µM)
CCCc1ccc2c(c1CO)O[C@@H](C(C)(C)O)C2 [Compound 11, (−)-brassicadiol] |  |  |  | > 100 |  |  | 
CC(C)=C1Oc2c(ccc3c2[C@@H](O)O[C@H](C)C3)C1=O [Compound 12, (+)-pseudodeflectusin] | > 100 | > 100 | > 100 | > 100 |  |  | 
CC(C)=C1Oc2c(ccc(CC(C)O)c2CO)C1=O (stereo not drawn) [Compound 14, ustusorane A] | > 100 | > 100 | > 100 | > 100 |  |  | 
O=C(O)c1cn(C2CC2)c2cc(N3CCNCC3)c(F)cc2c1=O [ciprofloxacin, reference compound] | 1.25 ± 1.1 (≈ 3.77 µM) | 1.25 ± 1.12 (≈ 3.77 µM) | 2.5 ± 1.1 (≈ 7.54 µM) | 2.5 ± 1.2 (≈ 7.54 µM) |  |  | 
